We go through 17 compounds from patent publication US20110294799A1, “Organic Compounds” (NOVARTIS AG, priority 2007, published 2011).

Test [1] has as its target T1, GABA-A alpha2 receptor (alpha 2 subunit together with a beta and a gamma subunit) (Homo sapiens, UniProt P18507+P47869).
T1 construct: expressed in transfected cells
T1 sequence (P47869 29-451): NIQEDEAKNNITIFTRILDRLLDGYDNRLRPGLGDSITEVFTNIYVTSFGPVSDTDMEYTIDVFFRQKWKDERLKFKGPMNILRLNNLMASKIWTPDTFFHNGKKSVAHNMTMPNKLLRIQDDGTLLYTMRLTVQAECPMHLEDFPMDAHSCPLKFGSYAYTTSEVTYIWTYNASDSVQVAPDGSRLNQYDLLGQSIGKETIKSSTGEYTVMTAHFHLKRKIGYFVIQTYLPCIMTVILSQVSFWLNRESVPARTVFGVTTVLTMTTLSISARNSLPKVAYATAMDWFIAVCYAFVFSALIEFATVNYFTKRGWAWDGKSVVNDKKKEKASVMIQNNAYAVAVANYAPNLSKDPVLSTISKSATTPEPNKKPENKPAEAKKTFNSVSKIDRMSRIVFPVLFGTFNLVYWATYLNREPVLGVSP
T1 sequence (P47870 25-512 partner limits assumed): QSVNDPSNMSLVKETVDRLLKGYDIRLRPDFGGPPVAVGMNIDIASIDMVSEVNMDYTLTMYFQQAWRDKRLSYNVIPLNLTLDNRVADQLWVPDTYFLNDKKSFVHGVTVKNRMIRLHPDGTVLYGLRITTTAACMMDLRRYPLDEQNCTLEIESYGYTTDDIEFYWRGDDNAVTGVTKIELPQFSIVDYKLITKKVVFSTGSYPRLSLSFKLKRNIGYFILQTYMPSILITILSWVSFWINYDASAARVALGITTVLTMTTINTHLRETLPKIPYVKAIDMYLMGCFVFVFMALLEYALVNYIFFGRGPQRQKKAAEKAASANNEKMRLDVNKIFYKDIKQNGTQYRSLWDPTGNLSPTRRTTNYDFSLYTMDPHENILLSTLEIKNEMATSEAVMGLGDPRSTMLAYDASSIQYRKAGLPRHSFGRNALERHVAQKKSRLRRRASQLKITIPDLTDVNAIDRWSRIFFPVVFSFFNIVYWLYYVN
T1 sequence (P18507 40-467 limits assumed): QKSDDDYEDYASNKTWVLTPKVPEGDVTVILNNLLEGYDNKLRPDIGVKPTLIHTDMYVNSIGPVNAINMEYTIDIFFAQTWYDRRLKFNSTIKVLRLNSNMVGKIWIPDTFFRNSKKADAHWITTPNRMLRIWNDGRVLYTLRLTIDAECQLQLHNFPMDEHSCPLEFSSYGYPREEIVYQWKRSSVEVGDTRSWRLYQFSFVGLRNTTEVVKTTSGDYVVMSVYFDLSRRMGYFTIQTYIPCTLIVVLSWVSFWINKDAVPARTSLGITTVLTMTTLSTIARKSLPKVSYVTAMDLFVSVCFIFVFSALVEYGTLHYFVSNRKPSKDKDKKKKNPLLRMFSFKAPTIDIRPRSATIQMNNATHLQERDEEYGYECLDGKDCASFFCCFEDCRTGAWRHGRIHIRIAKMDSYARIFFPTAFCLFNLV
Nature of the test: GABA-A receptor modulation, voltage-sensitive dye fluorescence in transfected eukaryotic cell line (alpha2). Particulars: compounds at 3 μM, sub-maximal concentration of GABA (EC20); for activation at 3 µM: read-out: alpha2 % mod (percentage of increase of the fluorescent signal compared to signal without the agent). Type of test: cell-based. The text has this: (§1) GABA-A receptor modulators show in functional assays a positive modulation of GABA-induced signals. This modulation can be determined in vitro, e.g., at recombinant GABA-A receptors expressed in a mammalian cell line, e.g. by measurement of GABA-A receptor induced changes of the trans-membrane voltage, when using a voltage-sensitive dye and a fluorescence detection system (Adkins, C. E., Pillai, G. V., Kerby, J., Bonnert, T. P., Haldon, C., Mckernan, R. M., Gonzalez, J. E., Oades, K., Whiting, P. J. & Simpson, P. B. [2001]. alpha4beta3delta GABA-A receptors characterized by fluorescence resonance energy transfer-derived measurements of membrane potential. J. Biol. Chem., 276, 38934-38939). In this assay, a modulator compound is pre-applied at different concentrations ranging from 0.1 nM to 10 μM to cells expressing GABA-A receptors and loaded with the voltage-sensitive dye, before, or at the same time as, a sub-maximal concentration of GABA (in the range of from 0.1 to 10 μM) is applied to the cells. The fluorescent signal is correlated with the degree of GABA-A receptor channel opening. This allows the quantification of effects induced by the modulator in a functional manner. By expression of different GABA-A receptor subunit combinations, the differential efficacy of a modulator at different GABA-A receptor variants can be tested. Other functional assays include the electrophysiological recording of Xenopus oocytes or mammalian cells expressing respective receptor variants. In addition, ion flux detectors can be used to functionally study GABA-A receptors in heterologous expression systems. The affinity of a compound to the GABA-A receptor can be measured in radioligand binding experiments using reference ligands containing a radioactive element, e.g., tritiated flumazenil, and intact cells or membrane preparations of cells expressing GABA-A receptors.
(§2) Activity and selectivity of a GABA-A receptor modulator according to the invention can, e.g., be determined in vitro as follows: A transfected eukaryotic cell line expressing the alpha1, alpha2 or alpha3 subunit of the GABA-A receptor together with a beta and a gamma subunit of the GABA-A receptor is incubated with a voltage-sensitive dye, and the effects of an agonist (typically GABA) or modulator addition are recorded in a fluorimetric plate reader. The opening of the GABA-A receptor channel and the subsequent flux of anions through it changes the trans-membrane voltage of the transfected cells, leading to a change in the fluorescent signal of the voltage-sensitive dye. In the presence of the agent of the invention, a sub-maximal concentration of GABA (e.g. an EC20 or an EC50) added to transfected cells expressing the alpha1, alpha2 or alpha3 subunit of the GABA-A receptor will elicit an at least 50%, preferably an at least 80%, ideally an at least 100%, increase, of the fluorescent signal, compared to the fluorescent signal obtained without the agent of the invention. In this assay, agents of the invention modulate the GABA-induced response at concentration from about 0.1 to about 10′000 nM.

Test [2] has as its target T2, GABA-A alpha1 receptor (alpha 1 subunit together with a beta and a gamma subunit) (Homo sapiens, UniProt P14867+P18507).
T2 construct: expressed in transfected cells
T2 sequence (P14867 28-456): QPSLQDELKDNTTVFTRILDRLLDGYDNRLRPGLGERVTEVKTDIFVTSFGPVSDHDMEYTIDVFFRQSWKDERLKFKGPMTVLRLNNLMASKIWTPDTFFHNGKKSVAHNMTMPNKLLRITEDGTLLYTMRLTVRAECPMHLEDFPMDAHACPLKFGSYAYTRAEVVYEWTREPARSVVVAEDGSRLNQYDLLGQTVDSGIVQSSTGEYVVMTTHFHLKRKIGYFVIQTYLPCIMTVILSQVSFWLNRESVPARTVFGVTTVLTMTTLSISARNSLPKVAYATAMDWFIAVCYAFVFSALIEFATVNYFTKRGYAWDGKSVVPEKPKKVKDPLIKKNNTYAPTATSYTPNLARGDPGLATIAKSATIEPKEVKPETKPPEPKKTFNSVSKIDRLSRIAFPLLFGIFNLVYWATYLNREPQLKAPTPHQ
T2 sequence (P47870 25-512 partner limits assumed): T1 sequence (P47870 25-512 partner limits assumed)
T2 sequence (P18507 40-467 limits assumed): T1 sequence (P18507 40-467 limits assumed)
Description: GABA-A receptor modulation, voltage-sensitive dye fluorescence in transfected eukaryotic cell line (alpha1). The format is cell-based. Particulars: compounds at 3 μM, sub-maximal concentration of GABA (EC20); for activation at 3 µM: read-out: alpha1 % mod (percentage of increase of the fluorescent signal compared to signal without the agent).
Text: as §1, §2

Take `Fc1ccccc1-n1nc2c(cnc3ccccc32)c1OCCc1ccccc1Cl` [Example 16, 3-[2-(2-chlorophenyl)ethoxy]-2-(2-fluorophenyl)-2H-pyrazolo[4,3-c]quinoline]: the activation at 3 µM in test [1] came out at 101%; in test [2], 18%.
For `COc1ccc(-n2nc3c(cnc4ccccc43)c2OCCOc2ccccc2)cc1` [Example 13, 2-(4-methoxyphenyl)-3-(2-phenoxyethoxy)-2H-pyrazolo[4,3-c]quinoline] the same measures were 52% and -29%.
The like results for `Fc1ccccc1-n1nc2c(cnc3ccccc32)c1OCCN1CCOCC1` [Example 19, 2-(2-fluorophenyl)-3-(2-morpholin-4-ylethoxy)-2H-pyrazolo[4,3-c]quinoline] were, in that order, 72% and 0%.
For `Cc1ccccc1-n1nc2c(cnc3ccccc32)c1OCc1ccccc1Br` [Example 36, 3-[(2-bromobenzyl)oxy]-2-(2-methylphenyl)-2H-pyrazolo[4,3-c]quinoline], the activation at 3 µM came to 315% in test [1] and 223% in test [2].
For `Clc1ccc(-n2nc3c(cnc4ccc(-n5ccnc5)cc43)c2OCC2CCCC2)cc1` [Example 113, 2-(4-Chloro-phenyl)-3-cyclopentylmethoxy-8-imidazol-1-yl-2H-pyrazolo[4,3-c]quinoline] the same measures were 88% and 63%.
The like results for `COc1ccc(-n2nc3c(cnc4ccccc43)c2OCCc2ccc(Cl)cc2)cc1` [Example 14, 3-[2-(4-chlorophenyl)ethoxy]-2-(4-methoxyphenyl)-2H-pyrazolo[4,3-c]quinoline] were, in that order, 34% and 3%.
The like results for `Clc1ccc(-n2nc3c(cnc4ccccc43)c2OC2CCCC2)cc1` [Example 92, 2-(4-Chloro-phenyl)-3-cyclopentyloxy-2H-pyrazolo[4,3-c]quinoline] were, in that order, 57% and 27%.
As to `Clc1ccccc1-n1nc2c(cnc3ccccc32)c1OCc1ccccc1Br` [Example 41, 3-[(2-bromobenzyl)oxy]-2-(2-chlorophenyl)-2H-pyrazolo[4,3-c]quinoline], the activation at 3 µM in test [1] was determined as 386%; in test [2], 289%.
On to `Clc1ccccc1COc1c2cnc3ccccc3c2nn1-c1ccccn1` [Example 34, 3-[(2-chlorobenzypoxy]-2-pyridin-2-y1-2H-pyrazolo[4,3-c]quinoline], for which the “alpha2 % mod (percentage of increase of the fluorescent signal compared to signal without the agent)” value in test [1] worked out at 57 % mod. In addition, the “alpha1 % mod (percentage of increase of the fluorescent signal compared to signal without the agent)” value in test [2] was 13 % mod.
For `Clc1ccccc1COc1c2cnc3ccccc3c2nn1-c1ccc2c(c1)OCO2` [Example 59, 2-(1,3-benzodioxo1-5-y1)-3-[(2-chlorobenzypoxy]-2H-pyrazolo[4,3-c]quinoline] the same measures were 66 % mod and −17 % mod.
For the compound `Clc1ccc(-n2nc3c(cnc4ccccc43)c2OCCN2CCOCC2)cc1` [Example 93, 2-(4-Chloro-phenyl)-3-(2-morpholin-4-yl-ethoxy)-2H-pyrazolo[4,3-c]quinoline], the values for the activation at 3 µM in test [1] and in test [2] were 81% and 17%, respectively.
As to `Cc1cccc2c1ncc1c(OCc3ccc(Cl)cc3)n(-c3ccccc3)nc12` [Example 31, 3-[(4-chlorobenzyl)oxy]-6-methyl-2-phenyl-2H-pyrazolo[4,3-c]quinoline], the activation at 3 µM in test [1] was found to be 81%; in test [2], 51%.
The like results for `COc1ccc(-n2nc3c(cnc4ccccc43)c2OCc2ccncc2)cc1` [Example 60, 2-(4-methoxyphenyl)-3-(pyridin-4-ylmethoxy)-2H-pyrazolo[4,3-c]quinoline] were, in that order, 177% and 64%.
For the compound `Clc1ccc(-n2nc3c(cnc4ccccc43)c2OCC2CC2)cc1` [Example 90, 2-(4-Chloro-phenyl)-3-cyclopropylmethoxy-2H-pyrazolo[4,3-c]quinoline], the activation at 3 µM in test [1] is 164%; in test [2] it was 60%.
The like results for `Clc1ccc(-n2nc3c(cnc4ccc(-n5ccnc5)cc43)c2OCCc2ccccc2Cl)cc1` [Example 114, 2-(4-Chloro-phenyl)-3-[2-(2-chloro-phenyl)-ethoxy]-8-imidazol-1-yl-2H-pyrazolo[4,3-c]quinoline] were, in that order, 129% and 108%.
For `Fc1ccc(-n2nc3c(cnc4ccccc43)c2OCc2ccccc2C(F)(F)F)cc1` [Example 50, 2-(4-fluorophenyl)-3-{[2-(trifluoromethyl)benzyl]oxy}-2H-pyrazolo[4,3-c]quinoline] the same measures were 236% and 47%.
For `COc1ccc(-n2nc3c(cnc4ccccc43)c2OCc2ccccc2Cl)cc1` [Example 61, 3-[(2-chlorobenzyl)oxy]-2-(4-methoxyphenyl)-2H-pyrazolo[4,3-c]quinoline] the same measures were 145% and 52%.
